Assay results: US20150368620A1, “METHOD OF DETACHING ADHERENT CELLS FOR FLOW CYTOMETRY” (KING ABDULLAH UNIVERSITY OF SCIENCE AND TECHNOLOGY, priority 2013, published 2015)

Assays:
BJ cells = details: 12 μl of 15 mM EDTA pH 6.14 added to media, 37° C., 96-well
Method: (§1) In one method, five thousand cells were plated per well in 45 μl of media in 96-well plate. The cells were shaken at 750 rpm with an Orbital shaker for 20 seconds and allowed to settle for 16-24 hrs in 5% CO2 incubator at 37° C. A desired concentration of drug was added to cells in a volume of […] to make the final volume per well up to 50 μl. The cells and drug were mixed at 750 rpm with an Orbital shaker for 20 seconds and incubated again for desired period of time. Twelve microliters of 15 mM EDTA pH 6.14 (upto 20 mM can be added depending on the cell line) were added per well, mixed at 750 rpm with an Orbital shaker for 20 seconds and incubated at 37° C. for 45 min to 1 hour (until cells lift). Fifteen microliters of media containing 1 μl APOPercentage dye was added to the cells and incubated for 15-20 min at 37° C. The cells were analyzed on flow cytometer setting a threshold for FSC-H of 80,000, cytometer speed at medium (2 μl/sec), peristaltic pump speed at 23 rpm, shaking on 1800 rpm, gating on 2D plot of FSC vs SSC and a 1D plot measuring FL2-H/FL3-H on the X axis. The HTFC system was used.
(§2) The following steps can be used to measure apoptosis using APOPercentage Assay in adherent cells. 5000 cells per well were plated in 45 μl of media in 96-well plate, shaken at 750 rpm with an Orbital shaker for 20 seconds, and allowed to settle 16-24 hours (h). Desired concentration of drug was added to cells in a volume of […] to make the final volume per well up to 50 μl, was shaken at 750 rpm with an Orbital shaker for 20 seconds, and was then incubated for desired period of time. 12 μl of 15 mM EDTA pH 6.14 per well was added (upto 20 mM can be added depending on the cell line). Shake at 750 rpm with an Orbital shaker for 20 seconds and incubate at 37° C. for 15 minutes (min) to 1 h (until cells lift).

DU145 cells [1] = details: 12 μl of 15 mM EDTA pH 6.14 added to media, 37° C., 96-well
Method: as §1, §2

HeLa cells [2] = details: 12 μl of 15 mM EDTA pH 6.14 added to media, 37° C., 96-well
Method: as §1, §2

MCF-7 cells [3] = details: 12 μl of 15 mM EDTA pH 6.14 added to media, 37° C., 96-well
Method: as §1, §2

HT1080 cells [4] = details: 12 μl of 15 mM EDTA pH 6.14 added to media, 37° C., 96-well
Method: as §1, §2

BJ, MCF-7 and HeLa cells = details: untreated cells lifted with EDTA, APOPercentage staining
Method: as §1

BT20 cells [5] = details: 12 μl of 15 mM EDTA pH 6.14 added to media, 37° C., 96-well
Method: as §2, with “5000” for “The following steps can be used to measure apoptosis using APOPercentage Assay in adherent cells. 5000”, “12 μl of 15 mM EDTA pH 6.14 per well was added (upto 20 mM can be added depending on the cell line).” left out

DU145 cells [6] = test: Mitochondrial membrane potential (MMP) JC-1 assay by flow cytometry; format: cell-based; details: 2 μM JC-1, 100 mM H2O2 positive control, Accuri C6 HTFC, 96-well
Method: (§3) The following can be the steps used to determining MMP by Flow Cytometry in adherent cells. […] Add 15 μl of serum free media containing JC-1 dye so that the final concentration is 2 μM in a total volume of 77 μl and incubate for 1-2 h at 37° C. […] 100 mM H2O2 can be used as a positive control.
In FIGS. 7A-B, DU145 Cells unstained (blue), untreated (red) or treated (green) were analyzed by flow cytometry on an Accuri C6 to determine the percentage of cells with disrupted MMP. Cells were seeded at a density of 5×10^3 cells per well in 96-well plate. Following day media was removed from cells and replaced with 50 μl EDTA as a positive control for MMP disruption for 60 min. Cells were lifted with EDTA and stained with a final concentration of 2 μM JC-1 dye and analyzed by flow cytometry. Separation of unstained (blue), untreated (red) and treated (green) cells based on FL2-H and FL-1-H profile (A). 1D Histogram of unstained (blue), untreated (red) and treated (green) cells measuring fluorescence in the FL2-H channel (B).
In FIG. 8, DU145 and MCF-7 Cells were analyzed by flow cytometry on a BD LSRFortessa HTS to determine the level of MMP in cells. Data was analyzed using FlowJo version 7.6.5 software. […] Cells were lifted with EDTA and analyzed by flow cytometry.

MCF-7 cells [7] = test: APOPercentage apoptosis assay by flow cytometry; format: cell-based; details: APOPercentage dye, 2.5 mM H2O2 positive control, Accuri C6 HTFC, 96-well
Method: (§4) The HTFC system was used.
Untreated and treated MCF-7 cells were analyzed by flow cytometry on an Accuri C6 flow cytometer to determine the percentage of cells undergoing apoptosis (FIG. 3). Cells were seeded at a density of 5×10^3 cells per well in 96 well plate. Cells treated with 2.5 mM H2O2 for 30 minutes or 62 μl EDTA pH 6.14 for 15-30 min. added to cells after removing media were used as a positive control for apoptosis. The cells were lifted and stained with 1 μl APOPercentage dye. The cells were then analyzed by flow cytometry. […] FIG. 3C is a bar graph showing the percentage of non-apoptotic and apoptotic cells within the untreated or treated population of cells.
(§5) Add 15 μl of serum free media containing 1 μl APOPercentage dye and incubate for 15-20 min at 37° C. […] 2.5 mM H2O2 is used as a positive control.
In FIG. 6, MCF-7 Cells untreated (blue, left) or treated (red, right) were analyzed by flow cytometry on a BD LSRFortessa HTS flow cytometer to determine the percentage of cells undergoing apoptosis. Data was analyzed using FlowJo version 7.6.5 software. […] Cells were lifted with EDTA and stained with 1 μl APOPercentage and analyzed by flow cytometry. 1D Histogram of untreated (blue) and treated (red) cells measuring fluorescence in the PE-A channel and applying gates to delineate Non-apoptotic (blue) and Apoptotic (red) cells.

HeLa cells [8] = test: Reactive oxygen species (ROS) DCFDA assay by flow cytometry; format: cell-based; details: 10 μM DCFDA, 10 mM H2O2 positive control, Accuri C6 HTFC, 96-well
Method: (§6) Add 15 μl of serum free media and incubate for 5-10 min.
In FIG. 9, HeLa and MCF-7 Cells were analyzed by flow cytometry on an Accuri C6 to determine the level of ROS in cells. Cells were seeded at a density of 5×10^3 cells per well in a 96-well plate, the following day cells were treated with 10 mM H2O2 as a positive control for ROS and test compounds. HeLa cells were stained with a final concentration of 10 μM DCFDA dye immediately after adding H2O2 (A). After incubation cells were lifted with EDTA and analyzed by flow cytometry. Separation of untreated (yellow) and treated (purple) cells based on FL-1-H profile (A). MCF-7 cells were treated with Plumbagin and its derivative Crotonate Plumbagin for 1 h (B). A final 10 μM DCFDA was added simultaneously with Plumbagin and its derivative to cells. Following incubation with drug cells were lifted with EDTA and analyzed by flow cytometry.
In FIGS. 10A-B, MCF-7 and HeLa Cells were analyzed by flow cytometry on a BD LSRFortessa HTS to determine the level of ROS in cells. Data was analyzed using FlowJo version 7.6.5 software. Cells were seeded at a density of 5×10^3 cells per well in a 96-well plate, the following day cells were left untreated (blue peak) or treated with 10 mM H2O2 as a positive control (red peak) for ROS. […] Cells were lifted with EDTA and analyzed by flow cytometry.

HeLa cells [9] = test: Mitochondrial membrane potential (MMP) JC-1 assay by flow cytometry; format: cell-based; details: 2 μM JC-1, 100 mM H2O2 positive control, Accuri C6 HTFC, 96-well
Method: as §3

DU145 cells [10] = test: APOPercentage apoptosis assay by flow cytometry; format: cell-based; details: APOPercentage dye, 2.5 mM H2O2 positive control, Accuri C6 HTFC, 96-well
Method: as §1
(§7) The following steps can be used to measure apoptosis using APOPercentage Assay in adherent cells. 5000 cells per well were plated in 45 μl of media in 96-well plate, shaken at 750 rpm with an Orbital shaker for 20 seconds, and allowed to settle 16-24 hours (h). […]

HT1080 cells [11] = test: APOPercentage apoptosis assay by flow cytometry; format: cell-based; details: APOPercentage dye, 2.5 mM H2O2 positive control, Accuri C6 HTFC, 96-well
Method: as §1, §7

BT20 cells [12] = test: Reactive oxygen species (ROS) DCFDA assay by flow cytometry; format: cell-based; details: 10 μM DCFDA, 2-10 mM H2O2 positive control, Accuri C6 HTFC, 96-well
Method: as §6

MCF-7 cells [13] = test: Mitochondrial membrane potential (MMP) JC-1 assay by flow cytometry; format: cell-based; details: 2 μM JC-1, 100 mM H2O2 positive control, Accuri C6 HTFC, 96-well
Method: as §3
In FIG. […] Data was analyzed using FlowJo version 7.6.5 software. Cells were seeded at a density of 5×10^3 cells per well in a 96-well plate, the following day cells were left untreated (red) or treated with 100 mM H2O2 as a positive control (blue) for MMP disruption. DU145 cells were stained with a final concentration of 2 μM JC-1 dye (representative image). Cells were lifted with EDTA and analyzed by flow cytometry.

BJ fibroblast cells = test: APOPercentage apoptosis assay by flow cytometry; format: cell-based; details: APOPercentage dye, 2.5 mM H2O2 positive control, Accuri C6 HTFC, 96-well
Method: as §4
BJ fibroblast cells were analyzed by flow cytometry on an Accuri C6 flow cytometer to determine the percentage of cells undergoing apoptosis (FIG. 2). Cells were seeded at a density of 5×10^3 cells per well in 96 well plate. Cells exposed to 2.5 mM H2O2 for 30 minutes or 62 μl EDTA pH 6.14 for 15-30 min. added to cells after removing media were used as a positive control for apoptosis. Cells were lifted and stained with 1 μl APOPercentage dye. The cells were then analyzed by flow cytometry. […] FIG. 2B includes a 1D Histogram of untreated and treated cells showing the fluorescence measured in the FL2-H channel, where gates were applied to delineate non-apoptotic and apoptotic cells. FIG. 2C is a bar graph showing the percentage of non-apoptotic and apoptotic cells that was measured within the untreated or treated (positive control) population of cells.
as §5

HeLa cells [14] = test: APOPercentage apoptosis assay by flow cytometry; format: cell-based; details: APOPercentage dye, 2.5 mM H2O2 positive control, Accuri C6 HTFC, 96-well
Method: as §4
Untreated and treated HeLa cells were also analyzed by flow cytometry on an Accuri C6 flow cytometer to determine the percentage of cells undergoing apoptosis (FIG. 4). Cells were seeded at a density of 5×10^3 cells per well in 96 well plate. Cells treated with 2.5 mM H2O2 for 30 minutes or 62 μl EDTA pH 6.14 for 15-30 min. added to cells after removing media were used as a positive control for apoptosis. Cells were lifted and stained with […] dye. The cells were then analyzed by flow cytometry. […] FIG. 4C is a bar graph showing the percentage of non-apoptotic and apoptotic cells within the untreated or treated population of cells.
as §5
Cells were seeded at a density of 5×10^3 cells per well in a 96-well plate. Following day, cells were treated with 2.5 mM H2O2 for 30 min. or 62 μl EDTA pH 6.14 for 15-30 min. added to cells after removing media as a positive control for apoptosis for 15-30 min. Cells were lifted with EDTA and stained with […] and analyzed by flow cytometry. […] 1D Histogram of untreated (blue) and treated (red) cells measuring fluorescence in the FL2-H channel and applying gates to delineate Non-apoptotic (blue) and Apoptotic (red) cells (FIG. 5B). […]

MCF-7 cells [15] = test: Reactive oxygen species (ROS) DCFDA assay by flow cytometry; format: cell-based; details: 10 μM DCFDA, 2-10 mM H2O2 positive control, Accuri C6 HTFC, 96-well
Method: as §6
In FIGS. […] Data was analyzed using FlowJo version 7.6.5 software. Cells were seeded at a density of 5×10^3 cells per well in a 96-well plate, the following day cells were left untreated (blue peak) or treated with 10 mM H2O2 as a positive control (red peak) for ROS. MCF-7 and HeLa cells were stained with a final concentration of 10 μM DCFDA dye immediately after adding H2O2 (A and B). Cells were lifted with EDTA and analyzed by flow cytometry.

Row | Structure (SMILES) | Time to lift with EDTA (BJ cells) [min] | Time to lift with EDTA (DU145 cells [1]) [min] | Time to lift with EDTA (HeLa cells [2]) [min] | Time to lift with EDTA (MCF-7 cells [3]) [min] | Time to lift with EDTA (HT1080 cells [4]) [min] | effect of cell lifting chemical on untreated cells (membrane, apoptosis) (BJ, MCF-7 and HeLa cells) | Time to lift with EDTA (BT20 cells [5]) [min] | Percent cells having JC-1 green in treated positive control (DU145 cells [6]) [%] | Percent cells stained in positive control (MCF-7 cells [7]) [%] | Percent cells stained with DCFDA in treated positive control (HeLa cells [8]) [%] | Percent cells having JC-1 green in treated positive control (HeLa cells [9]) [%] | Percent cells stained in positive control (DU145 cells [10]) [%] | Percent cells stained in positive control (HT1080 cells [11]) [%] | Percent cells stained with DCFDA in treated positive control (BT20 cells [12]) [%] | Percent cells having JC-1 green in treated positive control (MCF-7 cells [13]) [%] | Percent cells stained in positive control (BJ fibroblast cells) [%] | Percent cells stained in positive control (HeLa cells [14]) [%] | Percent cells stained with DCFDA in treated positive control (MCF-7 cells [15]) [%]
1 | O=C(O)CN(CCN(CC(=O)O)CC(=O)O)CC(=O)O [EDTA, ethylenediaminetetraacetic acid] | 30 to 50 | 20 to 30 | 30 to 45 | 15 to 20 | 20 to 30 | did not induce unwanted apoptosis in untreated cells | 40 to 60 | – | – | – | – | – | – | – | – | – | – | –
2 | OO [H2O2] | – | – | – | – | – | – | – | 90 | 85 | 90 | 90 | 90 | 95 | 95 | 95 | 90 | 90 | 90
